Experimental data taken from patent publication US12419884B2, “Compositions and methods for treating iron overload” (BRIGHAM YOUNG UNIVERSITY, priority 2018, dated 2025).

Tested on: hepcidin secretion from HepG2 cells
Experiment: hepcidin secretion from IL-6 and BMP-9 inflamed HepG2 cells, Mass Spectrometry
Type: cell-based
Conditions: IL-6 and BMP-9 (10 ng/mL each), inhibitors at 10 micromolar, FIG. 9

SMILES	inhibition of hepcidin secretion
CC(C)c1nc(CN(C)C(=O)N[C@H](C(=O)N[C@@H](Cc2ccccc2)C[C@H](O)[C@H](Cc2ccccc2)NC(=O)OCc2cncs2)C(C)C)cs1 [Ritonavir]	small inhibitory effect
CC(C)(C)NC(=O)[C@@H]1CN(Cc2cccnc2)CCN1C[C@@H](O)C[C@@H](Cc1ccccc1)C(=O)N[C@H]1c2ccccc2C[C@H]1O [indinavir, (2S)-1-[(2S,4R)-4-benzyl-2-hydroxy-4-{[(1S,2R)-2-hydroxy-2,3-dihydro-1Hinden-1-yl]carbamoyl}butyl]-N-tert-butyl-4-(pyridin-3-ylmethyl)piperazine-2-carboxamide]	more potent response

Tested on: hepcidin secretion from HepG2 cells
Experiment: hepcidin secretion from IL-6 inflamed HepG2 cells, ELISA
Type: cell-based
Conditions: IL-6 (10 ng/mL), inhibitors at 10 ng/mL, FIG. 8
Procedure: HepG2 cells were cultured with controls not treated with additional treatments. The remaining cells were all treated to induce inflammation IL-6 (10 ng/mL). Inhibitors were added at 10 ng/mL to block furin and prevent the cleavage of prohepcidin to hepcidin. Hepcidin secreted into the growth media was measured by ELISA.

SMILES	inhibition of hepcidin secretion
CC(C)CN(C[C@@H](OP(=O)(O)O)[C@H](Cc1ccccc1)NC(=O)O[C@H]1CCOC1)S(=O)(=O)c1ccc(N)cc1 [fosamprenavir]	showed inhibition of hepcidin secretion
COC(=O)N[C@H](C(=O)N[C@@H](Cc1ccccc1)[C@@H](O)CN(Cc1ccc(-c2ccccn2)cc1)NC(=O)[C@@H](NC(=O)OC)C(C)(C)C)C(C)(C)C [Atazanvir, methyl N-[(1S)-1-{[(2S,3S)-3-hydroxy-4-[(2S)-2-[(methoxycarbonyl)amino]-3,3-dimethyl-N′-{[4-(pyridin-2-yl)phenyl]methyl}butanehydrazido]-1-phenylbutan-2-yl]carbamoyl}-2,2-dimethylpropyl]carbamate]	showed inhibition of hepcidin secretion
Cc1cccc(C)c1OCC(=O)N[C@@H](Cc1ccccc1)[C@@H](O)C[C@H](Cc1ccccc1)NC(=O)[C@H](C(C)C)N1CCCNC1=O [Lopinavir, (2S)—N-[(2S,4S,5S)-5-[2-(2,6-dimethylphenoxy)acetamido]-4-hydroxy-1,6-diphenylhexan-2-yl]-3-methyl-2-(2-oxo-1,3-diazinan-1-yl)butanamide]	showed inhibition of hepcidin secretion

Molecular target: furin (Homo sapiens, UniProt P09958)
Sequence (P09958 108-794, species assumed): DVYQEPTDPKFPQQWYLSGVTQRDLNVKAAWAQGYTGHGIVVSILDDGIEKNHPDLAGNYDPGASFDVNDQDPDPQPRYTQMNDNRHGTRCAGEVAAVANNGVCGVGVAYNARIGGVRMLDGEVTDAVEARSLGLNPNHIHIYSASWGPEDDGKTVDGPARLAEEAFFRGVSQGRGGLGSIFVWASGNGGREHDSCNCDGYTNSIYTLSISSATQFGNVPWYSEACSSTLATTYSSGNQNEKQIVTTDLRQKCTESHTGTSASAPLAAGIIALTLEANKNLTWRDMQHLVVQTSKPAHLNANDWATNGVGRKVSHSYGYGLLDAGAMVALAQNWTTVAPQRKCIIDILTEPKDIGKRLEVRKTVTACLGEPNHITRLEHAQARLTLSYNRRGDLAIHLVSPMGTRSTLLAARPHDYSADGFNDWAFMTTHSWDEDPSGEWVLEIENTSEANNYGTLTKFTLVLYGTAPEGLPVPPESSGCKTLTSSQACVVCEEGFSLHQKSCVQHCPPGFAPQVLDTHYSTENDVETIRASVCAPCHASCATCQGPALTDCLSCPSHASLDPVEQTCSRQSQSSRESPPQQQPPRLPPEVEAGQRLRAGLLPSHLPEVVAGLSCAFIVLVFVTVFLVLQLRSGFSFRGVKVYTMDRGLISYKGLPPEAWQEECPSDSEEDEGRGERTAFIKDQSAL
Experiment: furin fluorescence assay / enzyme assays with purified furin
Conditions: in vitro fluorescence assay; 55, 110 and 220 micromolar doses; FIG. 7

furin inhibition	SMILES
most potent furin inhibition	CC(C)CN(C[C@@H](O)[C@H](Cc1ccccc1)NC(=O)O[C@H]1CO[C@H]2OCC[C@H]21)S(=O)(=O)c1ccc(N)cc1 [Darunavir, [(1R,5S,6R)-2,8-dioxabicyclo[3.3.0]oct-6-yl] N-[(2S,3R)-4-[(4-aminophenyl)sulfonyl-(2-methylpropyl)amino]-3-hydroxy-1-phenyl-butan-2-yl]carbamate]
most potent furin inhibition	CC(C)c1nc(CN(C)C(=O)N[C@H](C(=O)N[C@@H](Cc2ccccc2)C[C@H](O)[C@H](Cc2ccccc2)NC(=O)OCc2cncs2)C(C)C)cs1 [Ritonavir]
most potent furin inhibition	Cc1c(O)cccc1C(=O)N[C@@H](CSc1ccccc1)[C@H](O)CN1C[C@H]2CCCC[C@H]2C[C@H]1C(=O)NC(C)(C)C [Nelfinavir, (3S,4aS,8aS)—N-tert-butyl-2-[(2R,3R)-2-hydroxy-3-[(3-hydroxy-2-methylphenyl)formamido]-4-(phenylsulfanyl)butyl]-decahydroisoquinoline-3-carboxamide]

SMILES	furin inhibition
CC(C)(C)NC(=O)[C@@H]1CC2CCCCC2CN1C[C@@H](O)[C@H](Cc1ccccc1)NC(=O)[C@H](CC(N)=O)NC(=O)c1ccc2ccccc2n1 (stereo partly drawn) [Saquinavir, (2S)—N-[(2S,3R)-4-[(3S)-3-(tert-butylcarbamoyl)-decahydroisoquinolin-2-yl]-3-hydroxy-1-phenylbutan-2-yl]-2-(quinolin-2-yl-formamido)butanediamide]	very weak dose dependent inhibition of furin
